# From patent publication US20050202488A1, “Assay for therapies that inhibit expression of the cytosolic Cu/Zn superoxide dismutase (SOD1) gene” (The General Hospital Corporation, priority 2004, published 2005)
# Tested on: human SOD1 promoter
# Assay: SOD1 promoter-EGFP reporter high through-put screening assay in stably transfected PC12 cells
# Format: cell-based, rat
# Conditions: PC12 stable cell line treated 24 hrs with increasing mitomycin C concentration; FIG. 2
# Source text: We have developed a cell-based, fluorescent high through-put screening assay to identify compounds that reduce SOD1 expression using a stable rat pheochromocytoma PC12 cell line with 2.2 kb of human SOD1 promoter sequence driving EGFP expression (FIG. 1).
# The human SOD1 promoter was amplified by PCR from a control DNA sample using primers 5′ […] 3′ (SEQ ID NO:3) and 5′ […] 3′ (SEQ ID NO:4). Restriction sites were incorporated into the primers although these were not used for the cloning but to aid transfer into additional vectors in the future. PCR reactions were carried out in a final volume of 40 μl on a thermocycler (Hybaid). PCR reactions contained a final concentration of 3 U Taq polymerase (New England Biolabs, Beverly, Mass.), 150 ng of DNA, 1×PCR buffer, […] of each dNTP, 40 pmoles of forward and reverse primers (MWG-Biotech, High Point, N.C.), 2.5 mM MgCl2, and 5% DMSO. […]
# Initial testing of the assay has been carried out using a known inhibitor of SOD1 expression, mitomycin C (Cho C., et al., (1997), The transcriptional repression of the human Cu/Zn superoxide dismutase(sod1) gene by the anticancer drug, mitomycin C(MMC), Biochem Mol Biol Int., 42:949-56). […] The level of EGFP fluorescence was read on a Wallac plate reader (Perkin Elmer, Boston, Mass.) (excitation 485 nm, emission 535 nm). […]
smiles,measurement,value
CO[C@@]12[C@H](COC(N)=O)C3=C(C(=O)C(C)=C(N)C3=O)N1C[C@@H]1N[C@@H]12 [mitomycin C],EGFP fluorescence (relative expression level),progressive decrease in fluorescence
